Data reported in US9809562B2, “NAT10 modulators for treating or preventing laminopathies, aging and cancer” (CAMBRIDGE ENTERPRISE LIMITED, priority 2014, dated 2017).
Structures can show the parent of a compound that is named as a salt.

Columns and labels:
[1] = tested on: Lamin A/C depleted (siLMNA) U2OS cells; test: Nuclear shape rescue (DAPI staining, nuclear circularity) in Lamin A/C depleted cells; assay type: cell-based, human; settings: for increase in potency compared to Compound 2 (dose-dependent nuclear shape rescue): DAPI staining; for nuclear shape / nuclear circularity rescue: 16 hours, Compound 2 and 3 50 μM, MB-3 5 μM, FTI 5 μM, nocodazole 200 ng/ml, colchicine 1 μg/ml, latrunculin A 1 μM
Experimental: U2OS and SaOS-2 osteosarcoma cells, HeLa cervical cancer cells, A431 melanoma cells, NCI-SNU5 gastric cancer cells, MRC-5 lung fibroblast cells and Werner syndrome patient-derived SV40 fibroblast cells were grown in Dulbecco's modified Eagle medium (DMEM, Sigma-Aldrich) supplemented with 10% fetal bovine serum (BioSera), 2 mM L-glutamine, 100 U per ml penicillin, 100 μg ml^−1 streptomycin. Normal skin primary fibroblasts GM03440 and Hutchinson Gilford Progeria Syndrome (HGPS) skin primary fibroblasts AG11498 and AG06297 were purchased from Coriell Cell Repositories and used between passage number 9-12 and 20-23 respectively. Cells were grown in DMEM supplemented as above. RPE-1 retinal pigment epithelial cells were grown in DMEM and Ham F12 mix medium supplemented as above and buffered with sodium bicarbonate. HMV-II melanoma cell line, 22RV1 prostate carcinoma cells, NCI-H82 and NCI-H69 lung carcinoma cells, and NCI-N87 gastric cancer cell lines were grown in RPMI-1640 medium (Sigma-Aldrich) supplemented as above. Stably transfected U2OS cells were maintained in standard medium containing 1 mg ml^−1 G418 (Invitrogen). The siRNA duplexes were obtained from Life Sciences: Lamin A/C stealth RNAi: […] (SEQ ID NO: 1) and […] (SEQ ID NO: 2), NAT10 stealth RNAi: […] (SEQ ID NO: 3), and as control siRNA, stealth RNAi negative control duplexes were used. Plasmid DNA and siRNA transfections were carried out using Lipofectamine 2000 and Lipofectamine RNAiMax (Life Sciences) respectively, following the manufacturer's instructions. Cells were analysed 48 to 72 hours after transfection.
The following KAT and KDAC inhibitors were used in the nuclear shape rescue screen, incubating cells with the molecules for 16 hours: trichostatin A (1 μM), sodium butyrate (5 mM), tubacin (10 μM), SAHA (5 μM), curcumin (10 μM), garcinol (50 μM), anacardic acid (1 μM), MB-3 (5 μM), 4-(4-chlorophenyl)-2-(2-cyclopentylidenehydrazinyl)thiazole (Compound 2) (50 μM), 4-(4-chlorophenyl)-2-(2-cyclopentylidene-1-(prop-2-yn-1-yl)hydrazinyl)thiazole (Compound 3) (50 μM) and cyclopentylidene-[4-(4-cyanophenyl)thiazol-2-yl)hydrazine (Compound 1) (Remodelin) (10 to 50 μM). For HGPS cellular fitness assays, Remodelin was incubated at 1 μM for 1 to 10 days, renewing the medium every 3 days. For long-term senescence assay, cells were kept and passaged in medium containing 1 μM Remodelin or DMSO only for 12 population doublings. Senescence was assessed after 8 days of Remodelin treatment when cells were at Population Doubling 12, and then after several weeks of Remodelin treatment, when cells reached Population Doubling 24 using the Senescence β-Galactosidase Staining Kit #9860 from Cell Signaling. Nocodazole, colchicine and latrunculin A (Sigma-Aldrich) were used at 200 ng/ml, 1 μg/ml and 1 μM respectively. Aphidicolin (Sigma-Aldrich) was used at 5 μg/ml for 16 h. Farnesyltransferase inhibitor FTI-277 was purchased from Tocris Bioscience and used at 5 μM. ATMi (KU55933) and ATRi (ATR-45) were obtained from Tocris Bioscience and from the Ohio State University respectively and used at 10 μM and 500 nM. Pifithrin alpha (Sigma-Aldrich) was used at 10 μM.
CellProfiler software was used to quantify nuclear circularity and nuclear area from DAPI staining pictures, using the “object size shape” measurement. The AreaShape measurement allowed the calculation of the Form Factor index ([…]) corresponding to circularity (a Form Factor of 1 reflecting a perfect circle), as well as the calculation of nuclear Area.
Lamin A/C was depleted by siRNA in U2OS cells (siLMNA) to induce misshapen nuclei. Cells were then treated for 16 h with various analogues of Compound 2 and nuclear shape rescue was analysed by DAPI staining. The results are shown in FIG. 18 and FIG. 19 which display the structures of the tested molecules and their ability to rescue nuclear shape.

[2] = tested on: siLMNA cells; test: Cell cycle profile by flow cytometry; assay type: cell-based, human
Experimental: 10 μM EdU was incubated for 2 hours when indicated. Cells were fixed in 4% paraformaldehyde (Sigma-Aldrich). EdU was fluorescently labeled using the Click-iT® EdU Flow Cytometry Assay Kit (Life Sciences). DNA was stained with […] propidium iodide (Sigma-Aldrich) in phosphate buffer solution (PBS) containing 0.1% Triton-X-100 and 0.5 mg ml^−1 DNase free RNase A (Sigma-Aldrich). Samples were processed on a FACSCalibur flow cytometer equipped with CellQuest software (Becton Dickinson). Results were analysed using FlowJo software (TreeStar).

[3] = tested on: cancer cell lines with low or high Lamin A/C expression; test: Population doubling time of cancer cell lines; assay type: cell-based, human
Experimental: FIG. 15: Compound 2 inhibits the proliferation, migration and invasion of cancer cells with low Lamin A/C expression. […] C) Quantification of transwell migration assays and matrigel invasion assays from the indicated low expressing cancer cell lines after treatment with 50 μM of compound 2.

[4] = A431 proliferation assay (IncuCyte ZOOM); assay type: cell-based, human
Experimental: A431 cells expressing a low level of Lamin A protein (see FIG. 2) were plated at low density and treated with the indicated concentration of Compound 2. Cell growth was monitored automatically over time using an IncuCyte ZOOM®.

[5] = Stability on exposure to light or air; assay type: physicochemical

Structure (SMILES)	increase in potency compared to Compound 2 (dose-dependent nuclear shape rescue) [1]	increase in potency compared to Compound 2 (dose-dependent nuclear shape rescue) ([1]; listed as Remodelin) [fold]	accumulation of cells in mitosis [2]	proliferation of cells expressing high levels of lamin A/C ([3]; up to 50 μM)	reduction of A431 proliferation ([4]; 10 μM)	stability [5]	nuclear shape / nuclear circularity rescue [1]	effect on cell cycle profile ([2]; siLMNA cells)	population doubling time, sensitivity by Lamin A level ([3]; 50 μM for 1 week)	A431 cell growth ([4]; indicated concentrations, growth monitored over time)
N#Cc1ccc(-c2csc(NN=C3CCCC3)n2)cc1 [Compound 1, 4-(4-Cyanophenyl)-2-(2-cyclopentylidenehydrazinyl)thiazole]	five-fold	~5	cells did not accumulate in mitosis	not affected by up to 50 μM Remodelin	about 50%	most potent and stable analogue of the series	–	–	–	–
Clc1ccc(-c2csc(NN=C3CCCC3)n2)cc1 [Compound 2, 4-(4-Chlorophenyl)-2-(2-cyclopentylidenehydrazinyl)thiazole Hydrochloride Salt]	–	–	–	–	–	rapidly degraded upon exposure to light or air	completely restoring nuclear shape and circularity	without markedly affecting the cell cycle profile	cells expressing low levels of Lamin A are more sensitive to the molecule	inhibited in a dose-dependent manner
C#CCN(N=C1CCCC1)c1nc(-c2ccc(Cl)cc2)cs1 [Compound 3, 4-(4-Chlorophenyl)-2-(2-cyclopentylidene-1-(prop-2-yn-1-yl)hydrazinyl)thiazole]	–	–	–	–	–	–	equivalent cellular activity as Compound 2	–	–	–
